A short description of this data set: Lifetime (photobleaching) of photosensitizers by fluorescent emission monitoring. In kind it is physicochemical. To be noted: for complete photobleaching after (lifetime): 5 μM aqueous solution, green laser 532 nm 6.3 mW cm^−2 / white LED 2400 lux; for lasting time of singlet oxygen generation: estimated for standard illumination level of 500 lux. Here is the method:
To test the lifetime of photosensitizers, we monitored the fluorescent emission of Rose Bengal and Erythrosine, respectively. FIG. 10a is a graph of normalized intensity vs wavelength showing absorption and fluorescence for Rose Bengal and Erythrosine. 0.5-mL aqueous solutions of each photosensitizer were put into a cuvette and then the fluorescent spectrum was measured using a fiber bundle-coupled spectrometer (VS140 VIS-NIR; Horiba Jobin Yvon Inc., Edison, NJ, USA). […] Lifetime of Rose Bengal is longer than that of Erythrosine, showing complete photobleaching after 120 min (60 min for Erythrosine). Both are also activated by a white LED with 2400 lux. Considering that the standard illumination level of normal workstation spaces is 500 lux, the lasting time of singlet oxygen generation for Rose Bengal and Erythrosine can be estimated to be about 9.6 and 4.8 hours, respectively.

Erythrosine [FD&C RED No. 3]: the “complete photobleaching after (lifetime)” value turned out to be 60 min and the “lasting time of singlet oxygen generation” value was approximately 4.8 h.

With `O=C([O-])c1c(Cl)c(Cl)c(Cl)c(Cl)c1-c1c2cc(I)c(=O)c(I)c-2oc2c(I)c([O-])c(I)cc12.[Na+].[Na+]` [FD&C RED No. 105, Rose Bengal], the “complete photobleaching after (lifetime)” value stood at 120 min and the “lasting time of singlet oxygen generation” value was “about 9.6 hours”.
